Experimental data taken from ChEMBL document CHEMBL5126517, “Structure-Activity Relationship in the Leucettine Family of Kinase Inhibitors” (J Med Chem, 2022).

Assays:
[1] = molecular target: Glycogen synthase kinase-3 (Sus scrofa, UniProt B2LUN4+I6LNT8); assay: Inhibition of porcine brain GSK-3alpha/beta using YRRAAVPPSPSLSRHSSPHQpSEDEEE as substrate incubated for 30 mins in presence of ATP by scintillation counting method; type: tissue-based
[2] = molecular target: Dual specificity protein kinase CLK3 (Mus musculus, UniProt O35492); assay: Inhibition of GST-fused mouse recombinant CLK3 expressed in Escherichia coli using GRSRSRSRSRSR peptide as substrate incubated for 30 mins in presence of ATP by scintillation counting method
Sequence of Dual specificity protein kinase CLK3 (O35492 whole entry, the tested form may be a part): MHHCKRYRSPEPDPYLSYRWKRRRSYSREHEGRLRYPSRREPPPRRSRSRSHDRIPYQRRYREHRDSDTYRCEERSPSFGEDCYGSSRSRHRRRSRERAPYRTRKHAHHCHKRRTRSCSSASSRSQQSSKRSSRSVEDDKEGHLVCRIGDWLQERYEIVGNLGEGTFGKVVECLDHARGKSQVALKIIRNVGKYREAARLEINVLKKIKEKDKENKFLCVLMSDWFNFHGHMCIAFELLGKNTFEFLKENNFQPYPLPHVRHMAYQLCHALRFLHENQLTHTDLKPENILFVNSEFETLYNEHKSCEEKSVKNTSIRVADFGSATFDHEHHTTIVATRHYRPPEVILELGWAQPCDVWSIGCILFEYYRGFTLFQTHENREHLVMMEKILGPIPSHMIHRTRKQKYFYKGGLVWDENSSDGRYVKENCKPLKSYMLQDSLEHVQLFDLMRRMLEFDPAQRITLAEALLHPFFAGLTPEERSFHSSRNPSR

[3] = molecular target: Dual specificity protein kinase CLK1 (Mus musculus, UniProt P22518); assay: Inhibition of GST-fused mouse recombinant CLK1 expressed in Escherichia coli using GRSRSRSRSRSR peptide as substrate incubated for 30 mins in presence of ATP by scintillation counting method
Sequence of Dual specificity protein kinase CLK1 (P22518 whole entry, the tested form may be a part): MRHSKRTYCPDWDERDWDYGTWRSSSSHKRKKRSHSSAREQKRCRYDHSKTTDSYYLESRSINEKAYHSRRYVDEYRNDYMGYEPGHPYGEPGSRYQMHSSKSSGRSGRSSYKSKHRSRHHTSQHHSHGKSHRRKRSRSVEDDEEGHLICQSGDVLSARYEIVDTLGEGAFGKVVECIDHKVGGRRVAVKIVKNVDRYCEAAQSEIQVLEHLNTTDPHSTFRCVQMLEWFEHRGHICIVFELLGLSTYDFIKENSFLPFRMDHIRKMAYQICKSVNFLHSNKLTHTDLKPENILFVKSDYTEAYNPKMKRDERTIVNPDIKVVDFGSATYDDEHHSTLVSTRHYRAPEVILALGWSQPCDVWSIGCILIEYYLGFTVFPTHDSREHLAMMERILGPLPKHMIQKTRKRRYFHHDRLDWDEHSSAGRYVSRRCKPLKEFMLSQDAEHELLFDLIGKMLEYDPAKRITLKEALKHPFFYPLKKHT

[4] = molecular target: Dual specificity protein kinase CLK2 (Mus musculus, UniProt O35491); assay: Inhibition of mouse recombinant GST-fused CLK2 expressed in Escherichia coli using GRSRSRSRSRSR peptide as substrate incubated for 30 mins in presence of ATP by scintillation counting method
Sequence of Dual specificity protein kinase CLK2 (O35491 whole entry, the tested form may be a part): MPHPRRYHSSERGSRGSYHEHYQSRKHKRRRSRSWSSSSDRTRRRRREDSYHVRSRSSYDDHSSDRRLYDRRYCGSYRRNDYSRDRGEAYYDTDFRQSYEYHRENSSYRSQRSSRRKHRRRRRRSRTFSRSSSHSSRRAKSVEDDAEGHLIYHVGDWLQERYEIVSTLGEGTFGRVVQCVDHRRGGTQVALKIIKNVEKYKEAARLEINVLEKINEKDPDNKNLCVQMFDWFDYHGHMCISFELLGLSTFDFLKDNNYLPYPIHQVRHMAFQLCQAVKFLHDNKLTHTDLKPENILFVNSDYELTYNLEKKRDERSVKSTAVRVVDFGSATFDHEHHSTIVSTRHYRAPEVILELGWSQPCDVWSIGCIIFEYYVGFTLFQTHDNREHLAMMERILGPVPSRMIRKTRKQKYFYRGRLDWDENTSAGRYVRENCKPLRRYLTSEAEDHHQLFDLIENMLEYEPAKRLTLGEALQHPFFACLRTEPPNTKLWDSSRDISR

Casein kinase 2 = Casein kinase 2 (Homo sapiens, UniProt P67870+P68400+P19784+Q8NEV1); assay: Inhibition of human recombinant CK2 using RRRDDDSDDD peptide as substrate incubated for 30 mins in presence of ATP by scintillation counting method; type: protein assay
HT-22 = assay: Neuroprotective activity against glutamate-induced cell death in mouse HT-22 cells treated for 24 hrs by MTS assay; type: functional, cell-based; conditions: HT-22, 24 h
[5] = Neurotoxicity against mouse HT-22 cells assessed as cell survival at 20 uM treated for 24 hrs by MTS assay; type: toxicity, cell-based; conditions: ht-22, 24 h
[6] = molecular target: Dual specificity protein kinase CLK4 (Mus musculus, UniProt O35493); assay: Inhibition of GST-fused mouse recombinant CLK4 expressed in Escherichia coli using GRSRSRSRSRSR peptide as substrate incubated for 30 mins in presence of ATP by scintillation counting method
Sequence of Dual specificity protein kinase CLK4 (O35493 whole entry, the tested form may be a part): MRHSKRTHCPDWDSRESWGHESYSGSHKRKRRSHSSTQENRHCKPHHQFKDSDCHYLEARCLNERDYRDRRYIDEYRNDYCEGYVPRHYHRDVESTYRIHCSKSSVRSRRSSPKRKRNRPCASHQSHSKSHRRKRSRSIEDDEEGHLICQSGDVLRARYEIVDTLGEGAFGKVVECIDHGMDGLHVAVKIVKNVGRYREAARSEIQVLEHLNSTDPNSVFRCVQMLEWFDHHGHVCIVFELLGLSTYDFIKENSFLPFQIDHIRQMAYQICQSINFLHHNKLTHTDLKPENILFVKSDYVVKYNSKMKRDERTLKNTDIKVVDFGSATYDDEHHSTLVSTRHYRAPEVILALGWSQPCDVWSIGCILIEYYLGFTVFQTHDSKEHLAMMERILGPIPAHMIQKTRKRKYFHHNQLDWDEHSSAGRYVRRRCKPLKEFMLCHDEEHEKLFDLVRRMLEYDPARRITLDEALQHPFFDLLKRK

[7] = molecular target: Dual specificity tyrosine-phosphorylation-regulated kinase 1A (Homo sapiens, UniProt Q13627); assay: Inhibition of GST-fused human recombinant DYRK1A expressed in Escherichia coli using GRSRSRSRSRSR peptide as substrate incubated for 30 mins in presence of ATP by scintillation counting method
[8] = molecular target: Dual specificity tyrosine-phosphorylation-regulated kinase 1B (Homo sapiens, UniProt Q9Y463)
Sequence of Dual specificity tyrosine-phosphorylation-regulated kinase 1B (Q9Y463 whole entry, the tested form may be a part): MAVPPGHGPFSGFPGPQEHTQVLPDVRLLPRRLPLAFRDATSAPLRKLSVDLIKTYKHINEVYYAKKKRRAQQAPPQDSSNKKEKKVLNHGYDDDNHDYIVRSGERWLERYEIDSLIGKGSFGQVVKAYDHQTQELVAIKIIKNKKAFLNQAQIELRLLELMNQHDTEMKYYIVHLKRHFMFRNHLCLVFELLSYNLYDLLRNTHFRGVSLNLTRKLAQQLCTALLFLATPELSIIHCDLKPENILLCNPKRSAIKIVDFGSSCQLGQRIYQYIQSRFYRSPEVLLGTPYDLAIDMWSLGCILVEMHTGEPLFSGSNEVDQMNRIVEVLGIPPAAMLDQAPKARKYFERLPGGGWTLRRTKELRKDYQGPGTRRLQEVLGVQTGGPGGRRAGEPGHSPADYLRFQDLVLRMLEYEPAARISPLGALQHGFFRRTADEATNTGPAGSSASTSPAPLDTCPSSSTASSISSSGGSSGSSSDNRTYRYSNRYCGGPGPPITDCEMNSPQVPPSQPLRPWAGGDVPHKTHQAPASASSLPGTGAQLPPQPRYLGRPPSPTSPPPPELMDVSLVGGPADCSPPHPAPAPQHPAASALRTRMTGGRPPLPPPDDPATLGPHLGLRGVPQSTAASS

[9] = molecular target: T1, Dual specificity tyrosine-phosphorylation-regulated kinase 2 (Homo sapiens, UniProt Q92630); assay: Inhibition of GST-fused human recombinant DYRK2 expressed in Escherichia coli using GRSRSRSRSRSR peptide as substrate incubated for 30 mins in presence of ATP by scintillation counting method
T1 sequence (Q92630 whole entry): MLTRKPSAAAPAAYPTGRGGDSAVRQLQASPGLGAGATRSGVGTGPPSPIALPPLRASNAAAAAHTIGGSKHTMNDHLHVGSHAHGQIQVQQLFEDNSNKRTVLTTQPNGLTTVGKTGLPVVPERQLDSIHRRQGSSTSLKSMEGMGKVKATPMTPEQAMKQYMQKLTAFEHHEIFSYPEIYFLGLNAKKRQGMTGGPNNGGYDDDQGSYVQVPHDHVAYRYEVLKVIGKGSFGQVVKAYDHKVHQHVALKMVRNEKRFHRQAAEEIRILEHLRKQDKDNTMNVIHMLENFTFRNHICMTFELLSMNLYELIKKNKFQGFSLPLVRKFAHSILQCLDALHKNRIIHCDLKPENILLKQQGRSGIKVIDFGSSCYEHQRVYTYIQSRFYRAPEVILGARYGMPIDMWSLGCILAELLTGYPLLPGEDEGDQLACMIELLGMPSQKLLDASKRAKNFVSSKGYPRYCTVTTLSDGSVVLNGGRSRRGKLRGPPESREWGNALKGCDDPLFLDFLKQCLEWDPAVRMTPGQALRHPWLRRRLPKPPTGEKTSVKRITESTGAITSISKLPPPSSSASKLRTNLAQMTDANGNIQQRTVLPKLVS

[10] = molecular target: T2, Dual specificity tyrosine-phosphorylation-regulated kinase 3 (Homo sapiens, UniProt O43781); assay: Inhibition of GST-fused human recombinant DYRK3 expressed in Escherichia coli using GRSRSRSRSRSR peptide as substrate incubated for 30 mins in presence of ATP by scintillation counting method
T2 sequence (O43781 whole entry): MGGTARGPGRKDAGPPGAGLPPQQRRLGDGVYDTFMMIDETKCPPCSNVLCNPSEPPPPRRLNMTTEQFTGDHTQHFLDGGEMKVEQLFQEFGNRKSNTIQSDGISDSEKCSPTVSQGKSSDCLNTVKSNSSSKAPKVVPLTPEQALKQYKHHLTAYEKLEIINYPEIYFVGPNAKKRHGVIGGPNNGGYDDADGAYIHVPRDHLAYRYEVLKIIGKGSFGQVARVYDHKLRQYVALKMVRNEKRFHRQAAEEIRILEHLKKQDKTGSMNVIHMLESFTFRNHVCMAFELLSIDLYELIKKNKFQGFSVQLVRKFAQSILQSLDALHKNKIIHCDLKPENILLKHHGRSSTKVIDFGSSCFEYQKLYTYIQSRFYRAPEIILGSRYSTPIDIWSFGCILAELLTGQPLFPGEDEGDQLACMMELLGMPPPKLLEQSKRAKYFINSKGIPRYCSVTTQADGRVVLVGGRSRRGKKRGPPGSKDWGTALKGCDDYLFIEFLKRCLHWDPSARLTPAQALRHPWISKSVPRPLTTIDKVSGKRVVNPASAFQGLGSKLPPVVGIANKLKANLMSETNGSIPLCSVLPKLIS

[11] = molecular target: Serine/threonine-protein kinase pim-1 (Homo sapiens, UniProt P11309); assay: Inhibition of human recombinant Pim1 expressed in Escherichia coli using histone H1 as substrate incubated for 30 mins in presence of ATP by scintillation counting method
Sequence of Serine/threonine-protein kinase pim-1 (P11309 whole entry): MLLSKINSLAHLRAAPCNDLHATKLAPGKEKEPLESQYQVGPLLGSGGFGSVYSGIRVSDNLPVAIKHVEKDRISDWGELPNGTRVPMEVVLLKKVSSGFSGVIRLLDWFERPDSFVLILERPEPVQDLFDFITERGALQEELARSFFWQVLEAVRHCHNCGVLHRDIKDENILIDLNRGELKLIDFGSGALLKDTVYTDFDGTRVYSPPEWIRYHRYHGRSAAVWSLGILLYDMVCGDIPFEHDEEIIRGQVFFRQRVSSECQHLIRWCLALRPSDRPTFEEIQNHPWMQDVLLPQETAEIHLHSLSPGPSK

U2OS = assay: Induction of PI3K/mTor-dependent autophagy in human U2OS cells assessed as number of LC3 foci per cell at 10 uM measured after 4 hrs; type: cell-based; conditions: filed as activator
Cannabinoid receptor 1 = Cannabinoid receptor 1 (Homo sapiens, UniProt P21554); assay: Antagonist activity at CP-55940-activated CB1 receptor (unknown origin) at 10 uM by beta-arrestin assay relative to control; type: functional; design: scale not given: the % may be the effect or the level left
Sequence of Cannabinoid receptor 1 (P21554 whole entry): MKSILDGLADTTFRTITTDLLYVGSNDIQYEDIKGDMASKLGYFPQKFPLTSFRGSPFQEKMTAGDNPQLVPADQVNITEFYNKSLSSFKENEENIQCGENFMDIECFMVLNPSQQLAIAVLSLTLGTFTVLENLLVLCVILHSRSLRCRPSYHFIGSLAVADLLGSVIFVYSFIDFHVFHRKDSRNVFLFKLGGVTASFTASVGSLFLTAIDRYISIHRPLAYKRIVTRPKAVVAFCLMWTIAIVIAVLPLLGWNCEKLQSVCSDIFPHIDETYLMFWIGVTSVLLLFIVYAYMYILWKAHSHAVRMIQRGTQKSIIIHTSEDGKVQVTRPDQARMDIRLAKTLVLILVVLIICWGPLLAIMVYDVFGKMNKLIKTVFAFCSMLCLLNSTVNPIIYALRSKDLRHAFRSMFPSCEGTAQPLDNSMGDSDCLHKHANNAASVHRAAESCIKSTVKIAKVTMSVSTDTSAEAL

Compound | IC50 [1] | IC50 [2] | IC50 [3] | IC50 [4] | IC50 (Casein kinase 2) | EC50 (HT-22) | Activity [5] | IC50 [6] | IC50 [7] | IC50 [8] | IC50 [9] | IC50 [10] | IC50 [11] | Activity (U2OS) | Activity (Cannabinoid receptor 1) | Activity (Cannabinoid receptor 1; filed as antagonist)
[2H]C1([2H])Oc2ccc(/C=C3\N=C(Nc4ccccc4)NC3=O)cc2O1 | 750 nM | 500 nM | 40 nM | 170 nM | 1600 nM | 4900 nM | Non-Toxic |  |  |  |  |  |  |  |  | 
Cc1ccc(C)c(NC2=N/C(=C\c3ccc4c(c3)OCO4)C(=O)N2)c1 | 10000 nM | 3500 nM | 50 nM | 180 nM | 1600 nM | 7000 nM | Non-Toxic | 23 nM | 24 nM | 92 nM | 22 nM | 800 nM | 7700 nM | 26 | 10.8% | 
O=C1NC(Nc2ccccc2)=N/C1=C\c1ccc(F)cc1 |  | > 10000 nM | 3200 nM | > 10000 nM | 3200 nM | 2850 nM | Non-Toxic | 2800 nM | 9500 nM | > 10000 nM |  |  | > 10000 nM | 20.2 |  | 78%
O=C1NC(Nc2ccccc2)=N/C1=C\c1ccccc1 |  |  |  |  |  | 7200 nM | Non-Toxic |  |  |  |  |  |  | 7.7 |  | 44.6%
CCCCCCc1ccc(NC2=N/C(=C\c3ccc4c(c3)OCO4)C(=O)N2)cc1 |  |  | > 10000 nM |  |  | 1190 nM | Non-Toxic | 4100 nM | > 10000 nM | > 10000 nM | 9500 nM |  |  | 6.5 |  | 75%
Cc1ccc(NC2=N/C(=C\c3ccc4c(c3)OCO4)C(=O)N2)c(C)c1 | 1400 nM | > 10000 nM | 240 nM | 1100 nM | 2400 nM | 8000 nM | Non-Toxic | 140 nM | 72 nM | 160 nM | 75 nM | 950 nM | 2500 nM | 5.6 |  | 65.6%
O=C1NC(Nc2ccc(Oc3ccccc3)cc2)=N/C1=C\c1ccc2c(c1)OCO2 | > 10000 nM |  | 1800 nM | > 10000 nM |  | 2400 nM | Non-Toxic | 760 nM | 920 nM | 4000 nM | 1100 nM |  |  | 4.6 |  | 73.5%
COc1ccc(/C=C2\N=C(Nc3ccccc3)NC2=O)cc1O |  |  | 4300 nM | ≥ 10000 nM | > 10000 nM | 5570 nM | Non-Toxic | 4000 nM | 2000 nM | 2800 nM | 2100 nM | 2400 nM | 1900 nM | 6.5 |  | 46.8%
